Usually viability, T/C stands for the ratio of treated to control. Usually IC50 stands for the concentration at which inhibition is half-maximal.

Values joined by “and” are separate entries in the source; they are usually repeats but may differ in a detail not shown here. Equal values may be shown once. Some results are limits rather than exact numbers.

This test relates to 454973-116-R2-J3-PDC complex spheroid viability. The test can be described thus: Anticancer human tumor 454973-116-R2-J3-PDC patient-derived pancreatic carcinoma cell line growth inhibition [POLQ]. Particulars: for viability, T/C: stronger effect = lower value. As to the method:
Multicellular complex tumor spheroid response to Polymerase (POL) inhibitors (novobiocin, ART-558, RP6685) in combination with a variety of drugs and investigational agents in selected tumor cell lines
The POL inhibitors (novobiocin, ART-558, and RP6685) were evaluated both individually and in combination with standard of care and investigational anticancer small molecules within a complex spheroid model of solid tumors. . Complex spheroids include a stromal component modeled by human endothelial cells (HUVEC) and fibroblasts modeled by human mesenchymal stem cells (MSCs). The concentration ranges selected for each drug and investigational agent were based upon clinically achievable concentrations if the clinical Cmax of the agent was known.
Compounds. The drugs and investigational agents: novobiocin (NSC847541), ART-558 (NSC835418), RP-6685 (NSC848927), peposertib (NSC802822), ceralasertib (NSC780249), elimusertib (NSC800525), camonsertib (NSC841442), AZD-1390 (NSC803789), olaparib (NSC753686), talazoparib (NSC767125), rucaparib (NSC756644), sotorasib (NSC818433), MRTX-1133 (NSC836407), SN-38 (NSC673596), topotecan (NSC609699), epotoside (NSC141540), doxorubicin (NSC123127), gemcitabine (NSC613327), 5-fluorouracil (NSC19893), paclitaxel (NSC125973), vemurafenib (NSC761431), MSA-2 (NSC828583), SN-011 (NSC837082), adavosertib (NSC754352), prexasertib (NSC758257), carboplatin (NSC241240) and oxaliplatin (NSC266046), were obtained from the National Cancer Institute (NCI) Developmental Therapeutics Program Chemical Repository (21). The FDA-approved anticancer drug set is available from the Developmental Therapeutics Program at https://dtp.cancer.gov/organization/dscb/obtaining/. […] The stock solutions were prepared in dimethyl sulfoxide (DMSO, Sigma-Aldrich, St. Louis, MO, cat. D2650), except for the platinum compounds which were prepared in saline (Quality Biological, Gaithersburg, MD, cat. 114-055-101), at 800-fold the tested concentration and stored at -70 degrees C prior to their use. All drugs and investigational agents were tested over a range starting from a high concentration at or near the clinical Cmax and decreasing in half-log increments. If the clinical Cmax for an agent had not been determined, the highest concentration tested was 10 microM, except for SN-38, which was tested at a high concentration of 1 microM.
Cell Culture. All cells were maintained in an incubator at 37 degrees C and 5% CO2 with 95% humidity. The PDC lines were cultured according to standard operating procedures established by the NCI PDMR (https://pdmr.cancer.gov). Table 3 of the manuscript, lists the cell lines along with the number of the three cell types plated to form the mct-spheroids and media for tumor cell growth. After thawing, all PDC lines, except 997537-175-T-J1-PDC and 415267-285-R-J2-PDC, were cultured in Matrigel-coated flasks prepared with a working solution of 1X Ham's F-12 nutrient mix, without supplementation (Thermo Fisher Scientific, cat. 11765054), 100 U/mL penicillin-streptomycin (Thermo Fisher Scientific, cat. 15140122), and 2.5% Matrigel (Corning Inc., Corning, NY, cat. 354248) for the first three passages. The two PDC lines 997537-175-T-J1-PDC and 415267-285-R-J2-PDC were cultured on uncoated flasks. The 857933-349-R-J2-PDC line was cultured in 6C/Colon 1B media containing advanced DMEM/F-12 (Thermo Fisher Scientific, cat. 12634028), 10 mM HEPES (Thermo Fisher Scientific, cat. 15630080), 1X GlutaMAX supplement (Thermo Fisher Scientific, cat. 35050061), 0.1 mg/mL primocin (InvivoGen, San Diego, CA, cat. ant-pm-2), 10% defined fetal bovine serum, heat inactivated (HyClone Laboratories Inc., Logan, UT, cat. SH30070.03HI), 50% L-WRN conditioned media (ATCC, cat. CRL-3276), 1.25 mM N-Acetyl-L-cysteine (Sigma-Aldrich, cat. A9165), 10 mM nicotinamide (Sigma-Aldrich, cat. N0636), 1X B-27 supplement (Thermo Fisher Scientific, cat. 17504044), 1X N-2 supplement (Thermo Fisher Scientific, cat. […]
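Further: spheroids exposed to drugs for seven days before measurement.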
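Wherever viability, T/C is given: percent viability relative to DMSO vehicle control wells taken as 100%.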

As for `C=CCn1c(=O)c2cnc(Nc3ccc(N4CCN(C)CC4)cc3)nc2n1-c1cccc(C(C)(C)O)n1`, the viability, T/C is 108% and 106% and 102% (compound 0.00316 µM); 96.7% and 98.2% and 99.6% (compound 0.01 µM); 110% and 99.7% and 102% (compound 0.0316 µM); 105% and 104% and 98.3% (compound 0.1 µM); 86.9% and 73.9% and 63.5% (compound 0.316 µM); 17.3% and 10.9% and 9.18% (compound 1 µM). Also, the IC50 (curve of compound) was 583 nM and 490 nM and 421 nM.
`CC(=O)O[C@H]1C(=O)[C@@]2(C)[C@H]([C@H](OC(=O)c3ccccc3)[C@]3(O)C[C@H](OC(=O)[C@H](O)[C@@H](NC(=O)c4ccccc4)c4ccccc4)C(C)=C1C3(C)C)[C@]1(OC(C)=O)CO[C@@H]1C[C@@H]2O`: the viability, T/C (compound 0.00949 µM) was 6.41% and 6.34% and 12.2%; the viability, T/C (compound 0.03 µM) is 4.28% and 4.53% and 8.36%; the viability, T/C (compound 0.0949 µM) was 6.3% and 3.83% and 4.72%; the viability, T/C (compound 0.3 µM) is 4.7% and 3.78% and 4.01%; the viability, T/C (compound 0.949 µM) is 4.44% and 4.41% and 4.87%; the viability, T/C (compound 3 µM) is 4.64% and 4.24% and 4.62%. The IC50 (curve of compound) is less than 9.49 nM.
Consider `CC1COCCN1c1cc(-c2ccnn2C)c2ccnc(-c3ccn[nH]3)c2n1` (stereo not given), for which the viability, T/C was 91.5% and 96.9% and 97.4% (compound 0.0316 µM); 75.7% and 73.8% and 55.7% (compound 0.1 µM); 42.8% and 37.2% and 20.8% (compound 0.316 µM); 20.7% and 22.5% and 12.6% (compound 1 µM); 21.3% and 24.4% and 12.3% (compound 3.16 µM); 25% and 30% and 17.2% (compound 10 µM). Moreover, the IC50 (curve of compound) is 238 nM and 208 nM and 121 nM.
`CC1COCCN1c1cc(C2(S(C)(=N)=O)CC2)nc(-c2ccnc3[nH]ccc23)n1` (stereo not given): the viability, T/C reads like this: (compound 0.0316 µM) 112% and 105% and 108%; (compound 0.1 µM) 105% and 106% and 102%; (compound 0.316 µM) 108% and 109% and 103%; (compound 1 µM) 100% and 95.8% and 92%; (compound 3.16 µM) 79.7% and 65.6% and 90.4%; (compound 10 µM) 32.3% and 23.4% and 33.7%. Moreover, the half-maximal inhibitory concentration (IC50) (curve of compound) was 6520 nM and 4820 nM and 7120 nM.
In the case of `CCCS(=O)(=O)Nc1ccc(F)c(C(=O)c2c[nH]c3ncc(-c4ccc(Cl)cc4)cc23)c1F`, the viability, T/C (compound 0.0316 µM) is 111% and 107% and 105%; the viability, T/C (compound 0.1 µM) is 107% (2×) and 110%; the viability, T/C (compound 0.316 µM) was 108% (2×) and 115%; the viability, T/C (compound 1 µM) is 109% and 111% and 104%; the viability, T/C (compound 3.16 µM) was 116% and 110% and 112%; the viability, T/C (compound 10 µM) was 33% and 37.7% and 50.1%. Further, the half-inhibitory concentration (IC50) (curve of compound) was 7770 nM and 8190 nM and > 10000 nM.
Consider `CC[C@@]1(O)C(=O)OCc2c1cc1n(c2=O)Cc2cc3c(CN(C)C)c(O)ccc3nc2-1`, for which the viability, T/C is 120% and 108% and 112% (compound 0.000316 µM); 101% and 93.5% and 105% (compound 0.001 µM); 97% and 95.4% and 103% (compound 0.00316 µM); 81.7% and 76.8% and 84.1% (compound 0.01 µM); 20% and 13.8% and 24.2% (compound 0.0316 µM); 17.1% and 10.5% and 14.8% (compound 0.1 µM). Besides, the IC50 (curve of compound) is 18.2 nM and 16.3 nM and 19.3 nM.
In the case of `CCc1c2c(nc3ccc(O)cc13)-c1cc3c(c(=O)n1C2)COC(=O)[C@]3(O)CC`, the viability, T/C (compound 0.00316 µM) is 34.1% and 23.5% and 36.2%; the viability, T/C (compound 0.01 µM) was 12.7% and 10.6% and 14.8%; the viability, T/C (compound 0.0316 µM) is 13% (2×) and 7.69%; the viability, T/C (compound 0.1 µM) is 5.61% and 3.22% and 6.06%; the viability, T/C (compound 0.316 µM) was 2.43% and 3.16% and 3.18%; the viability, T/C (compound 1 µM) is 1.57% and 1.32% and 2.53%. The half-maximal inhibitory concentration (IC50) (curve of compound) is less than 3.16 nM.
As for `CNCc1ccc(-c2[nH]c3cc(F)cc4c3c2CCNC4=O)cc1`, the viability, T/C is, setting by setting: (compound 0.0316 µM) 103% and 105% and 99%; (compound 0.1 µM) 91.9% and 102% and 93%; (compound 0.316 µM) 97% and 98.4% and 112%; (compound 1 µM) 100% and 106% and 97.7%; (compound 3.16 µM) 111% and 101% and 102%; (compound 10 µM) 81.6% and 96.5% and 83.7%. In addition, the concentration for half-maximal inhibition (IC50) (curve of compound) is more than 10000 nM.
Regarding `COC1C(OC(N)=O)C(O)C(Oc2ccc3c(O)c(NC(=O)c4ccc(O)c(CC=C(C)C)c4)c(=O)oc3c2C)OC1(C)C` (stereo not given), the viability, T/C by setting is: (compound 0.0316 µM) 106% [middle of 13 runs]; (compound 0.1 µM) 111% [middle of 13 runs]; (compound 0.316 µM) 105% [middle of 13 runs]; (compound 1 µM) 102% [middle of 13 runs]; (compound 3.16 µM) 102% [middle of 13 runs]; (compound 10 µM) 109% [middle of 13 runs]. Besides, where the note is “compound alone, run of 10/31/2023”, the IC50 is more than 10000 nM.
Consider `COc1cc(C2c3cc4c(cc3C(OC3OC5COC(C)OC5C(O)C3O)C3COC(=O)C23)OCO4)cc(OC)c1O` (stereo not given), for which the viability, T/C is 102% and 100% and 103% (compound 0.0316 µM); 94.6% and 100% and 97.6% (compound 0.1 µM); 87.3% and 85.4% and 94.8% (compound 0.316 µM); 64.4% and 47.4% and 68.4% (compound 1 µM); 27% and 15.3% and 23.4% (compound 3.16 µM); 11% and 6.79% and 10.2% (compound 10 µM). The concentration for half-maximal inhibition (IC50) (curve of compound) was 1530 nM and 921 nM and 1600 nM.

The values above are taken from PubChem BioAssay AID1963846 (Molecular Pharmacology Branch, DTP, NCI, 2024).
